Measurements reported in the supplement of paper PMC10307832.

Columns and labels:
Test in all cases: relative viability (nuclei count vs DMSO), 5 days (fraction); higher = more cells survive
[1] = compound: C/C(=N\NC(=S)N1CCC1)/C2=CC=CC=N2 + CCNC(=O)c1noc(-c2cc(C(C)C)c(O)cc2O)c1-c1ccc(CN2CCOCC2)cc1 [Luminespib] (partner 0.01 µM)
In short: (§1)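 Lung cancer cell lines, seeded in 1536-well plates, were treated the following day by pin tool with a single drug or with five library-drug doses (not always all listed) in √10 steps on top of a fixed anchor-drug dose. Cells were fixed and nuclei stained in one step after 5 days, and nuclei were counted. Relative viability is the nuclei count for treated wells divided by that for vehicle wells, reported as medians of duplicate plates.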

[2] = compound: C/C(=N\NC(=S)N1CCC1)/C2=CC=CC=N2 + CS(=O)(=O)CCNCc1ccc(-c2ccc3ncnc(Nc4ccc(OCc5cccc(F)c5)c(Cl)c4)c3c2)o1 [Lapatinib] (partner 2 µM)
In short: as §1

[3] = compound: C/C(=N\NC(=S)N1CCC1)/C2=CC=CC=N2 + Nc1ncn([C@H]2C[C@H](O)[C@@H](CO)O2)c(=O)n1 [Decitabine] (partner 2 µM)
In short: as §1

[4] = compound: C/C(=N\NC(=S)N1CCC1)/C2=CC=CC=N2 + O=C(c1cc(Cc2n[nH]c(=O)c3ccccc23)ccc1F)N1CCN(C(=O)C2CC2)CC1 [Olaparib] (partner 8 µM)
In short: as §1

| Cell Line | relative viability ([1]; first compound 0.05 µM) | relative viability ([1]; first compound 0.1581 µM) | relative viability ([1]; first compound 0.5 µM) | relative viability ([1]; first compound 1.581 µM) | relative viability ([1]; first compound 5 µM) | relative viability ([2]; first compound 0.05 µM) | relative viability ([2]; first compound 0.1581 µM) | relative viability ([2]; first compound 0.5 µM) | relative viability ([2]; first compound 1.581 µM) | relative viability ([2]; first compound 5 µM) | relative viability ([3]; first compound 0.05 µM) | relative viability ([3]; first compound 0.1581 µM) | relative viability ([3]; first compound 0.5 µM) | relative viability ([3]; first compound 1.581 µM) | relative viability ([3]; first compound 5 µM) | relative viability ([4]; first compound 0.05 µM) | relative viability ([4]; first compound 0.1581 µM) | relative viability ([4]; first compound 0.5 µM) | relative viability ([4]; first compound 1.581 µM) | relative viability ([4]; first compound 5 µM) |
| --- | --- | --- | --- | --- | --- | --- | --- | --- | --- | --- | --- | --- | --- | --- | --- | --- | --- | --- | --- | --- |
| EPLC-272H | 0.105 | 0.105 | 0.192 | 0.203 | 0.165 | 0.139 | 0.195 | 0.229 | 0.155 | 0.161 | 0.123 | 0.111 | 0.109 | 0.062 | 0.101 | 0.114 | 0.13 | 0.0724 | 0.0602 | 0.131 |
| NCI-H2023 | 0.067 | 0.0631 | 0.0621 | 0.0569 | 0.0694 | 0.0813 | 0.0823 | 0.106 | 0.064 | 0.0792 | 0.0753 | 0.0791 | 0.067 | 0.0569 | 0.0755 | 0.0912 | 0.0578 | 0.0664 | 0.0644 | 0.0565 |
| BEN | 0.113 | 0.19 | 0.0969 | 0.12 | 0.0243 | 0.178 | 0.201 | 0.21 | 0.203 | 0.188 | 0.253 | 0.338 | 0.318 | 0.266 | 0.359 | 0.292 | 0.259 | 0.271 | 0.272 | 0.283 |
| COR-L 105 | 0.227 | 0.247 | 0.259 | 0.167 | 0.265 | 0.375 | 0.342 | 0.375 | 0.314 | 0.286 | 0.31 | 0.413 | 0.327 | 0.306 | 0.313 | 0.365 | 0.381 | 0.374 | 0.337 | 0.318 |
| ABC-1 | 0.224 | 0.264 | 0.291 | 0.145 | 0.316 | 0.475 | 0.513 | 0.495 | 0.459 | 0.456 | 0.343 | 0.373 | 0.385 | 0.381 | 0.287 | 0.349 | 0.338 | 0.301 | 0.345 | 0.438 |
| HCC-15 | 0.128 | 0.0546 | 0.119 | 0.0758 | 0.072 | 0.082 | 0.078 | 0.0841 | 0.0904 | 0.0765 | 0.0738 | 0.16 | 0.117 | 0.0902 | 0.0924 | 0.299 | 0.259 | 0.103 | 0.102 | 0.101 |
| NCI-H2170 | 0.689 | 0.25 | 0.136 | 0.18 | 0.151 | 0.24 | 0.2 | 0.203 | 0.192 | 0.188 | 0.374 | 0.434 | 0.22 | 0.199 | 0.14 | 0.487 | 0.575 | 0.161 | 0.124 | 0.124 |
| PC-3 [JPC-3] | 0.354 | 0.415 | 0.257 | 0.232 | 0.216 | 0.267 | 0.27 | 0.259 | 0.228 | 0.229 | 0.534 | 0.526 | 0.418 | 0.344 | 0.324 | 0.581 | 0.506 | 0.432 | 0.382 | 0.351 |
| NCI-H1993 | 0.455 | 0.496 | 0.517 | 0.428 | 0.509 | 0.59 | 0.634 | 0.619 | 0.58 | 0.543 | 0.42 | 0.497 | 0.342 | 0.431 | 0.381 | 0.418 | 0.426 | 0.355 | 0.334 | 0.431 |
